Results on 28 compounds are retold here after US20240140931A1, “TRICYCLIC COMPOUNDS AND USES THEREOF” (HUTCHMED LIMITED, priority 2021, published 2024).

For test [1], the system named is Miapaca2 3D spheroids. Put plainly: Assay of cell proliferation on Miapaca2 3D spheroids. It is filed as cell-based. The note with it: CellTiter-Glo 3D, 5 days treatment. Here is the method: Example 4 Assay of Cell Proliferation on Miapaca2 3D Spheroids
1. Reagents and Materials • CellTiter-Glo® 3D Cell Viability Assay Kit: Promega, Cat #G9683; • CellCarrier Spheroid ULA 96-well plate: Corning, Cat #4515; • Instrument: Envision, Perkinelmer; • Cell line: Miapaca2, ATCC, Cat #CRL-1420.
2. Preparation of Reaction Solutions • The test compound was dissolved in DMSO and diluted with DMSO to 3000.0 μM, and the compound was further 3-fold diluted with DMSO to: 1000.0, 333.3, 111.1, 37.0, 12.3, 4.1, and 1.4 μM. Then 2 μL of the compound at different dilution concentrations was added to 198 μL of a 1640 medium to prepare a 10× test compound, wherein DMSO was at the concentration of 1% (DMSO was at the final concentration of 0.1%).
3. Experimental Methods • Day0: Digest cells and count cell numbers. Miapaca2 cells were inoculated into a spheroid ULA 96-well plate at a density of 300 cells/well at 100 μL/well and cultured in a cell incubator at 5% CO2 and 37° C. • Day2: The cell spheroids formed at day2. Add 10 μL of 10× test compounds to the 96-well plate. To the cell positive control well was added 10 μL of 1% DMSO 1640 medium. Incubate the cell spheroids in a cell incubator at 5% CO2 and 37° C. for additional 5 days. • Cell viability assay: Add 50 μL of CellTiter-Glo reagent to each well, place the plate in a microplate shaker, and lysis under shaking at 900 rpm at room temperature for 5 minutes. Then incubate the plate at room temperature in the dark for 30 minutes. • The luminescene of each well was detected on Envision2104.
Cell Survial %=(Lum(d7 treatment)−Lum(d2 cell))/(Lum(d7 cell)−Lum(d2 cell))×100
Wherein: • Lum(d7 treatment) refers to the luminescene of the test compound treated cells on day7; • Lum(d2 cell) refers to the luminescene of the 0.1% DMSO treated Miapaca2 cells on day2; • Lum(d7 cell) refers to the luminescene of the 0.1% DMSO treated Miapaca2 cells on day7. • IC50 values were calculated following formula 205: y=A+((B−A)/(1+((C/X)^D))), by using the XL-Fit 5.0 software.
In general terms: ATP-based viability assays read luminescence as a measure of living cells.

Test [2] concerns pERK1/2 (Thr202/Tyr204) in Miapaca2 cells. Put plainly: Assay of intracellular pERK1/2 (Thr202/Tyr204) phosphorylation. It is filed as cell-based. The following applies: pERK1/2 (Thr202/Tyr204) HTRF. In outline:
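Miapaca2 cells treated 2 h at 37 °C with compound (3-fold series; final DMSO 0.5%), then lysed 1 h. pERK1/2 (Thr202/Tyr204) detected by HTRF (665/615 nm ratio) after 2 h at 25 °C; normalized to cell-free lysis buffer and DMSO-treated cell controls; IC50 by four-parameter fit.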

The target in test [3] is Human full-length SHP2 recombinant protein (Homo sapiens (Human), UniProt Q06124). Put plainly: Assay of full-length SHP2 phosphatase activity. It is filed as biochemical. The following applies: DiFMUP substrate, with activating peptide. In outline:
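Full-length human SHP2 preincubated 30 min at RT with activating peptide and compound (1% DMSO final). DiFMUP substrate added, reaction 60 min at 25 °C in dark. Fluorescence at ex 355/em 460 nm; IC50 from 4-parameter fit against enzyme-free and vehicle controls.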

The mark [4] stands for this setting: Homo sapiens, MIA PaCa-2, 120 h.

Sequence of Human full-length SHP2 recombinant protein (Q06124 whole entry): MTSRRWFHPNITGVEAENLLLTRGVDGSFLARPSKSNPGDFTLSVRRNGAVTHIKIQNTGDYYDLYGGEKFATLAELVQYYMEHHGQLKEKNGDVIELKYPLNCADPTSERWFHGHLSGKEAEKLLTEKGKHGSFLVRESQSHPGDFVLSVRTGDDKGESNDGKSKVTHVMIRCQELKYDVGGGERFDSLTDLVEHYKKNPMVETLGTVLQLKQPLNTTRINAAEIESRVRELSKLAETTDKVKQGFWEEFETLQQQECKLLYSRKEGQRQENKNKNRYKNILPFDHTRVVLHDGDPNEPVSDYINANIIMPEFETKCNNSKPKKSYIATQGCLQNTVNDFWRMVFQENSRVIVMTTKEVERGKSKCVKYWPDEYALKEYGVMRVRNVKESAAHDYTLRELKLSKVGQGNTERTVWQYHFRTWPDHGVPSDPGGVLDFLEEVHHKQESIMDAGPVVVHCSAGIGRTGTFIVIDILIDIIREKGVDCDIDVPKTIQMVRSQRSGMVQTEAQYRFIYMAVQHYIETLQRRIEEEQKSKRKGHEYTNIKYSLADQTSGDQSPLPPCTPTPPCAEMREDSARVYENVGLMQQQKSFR

Take `COCC#Cc1ccc2c(c1)[C@@H](N)C1(CCN(c3cc(=O)n(-c4ccc(F)c(OC)c4Cl)c(C)n3)CC1)C2` (atropisomer, axis not shown) [Compound 163]: the results for the half-maximal inhibitory concentration (IC50) in test [1] (setting [4]), in test [2] (2 hours) and in test [3] were 20 nM, 14 nM and 1 nM, respectively.
On to `CNC(=O)C#Cc1ccc2c(c1)[C@@H](N)C1(CCN(c3ncc(Sc4ccnc(N)n4)nc3C)CC1)C2` [Compound 233], for which the concentration for half-maximal inhibition (IC50) came to 3.2 nM in test [1] (setting [4]); 14 nM in test [2] (Homo sapiens, MIA PaCa-2, 2 h); 1.1 nM in test [3].
Consider `CC#Cc1ccc2c(c1)[C@@H](N)C1(CCN(c3nc(N)c(-c4cn(C)c5ncccc45)c(=O)n3C)CC1)C2` [Compound 286], for which the IC50 in test [1] (setting [4]) was determined as 9 nM; in test [2] (Homo sapiens, MIA PaCa-2, 2 h) it was 10 nM; in test [3], 2 nM.
As to `CNC(=O)C#Cc1ccc2c(c1)[C@@H](N)C1(CCN(c3cnc(Sc4cccnc4Cl)c(N)n3)CC1)C2` [Compound 248], the half-inhibitory concentration (IC50) is 0.4 nM in test [1] (setting [4]); 2 nM in test [2] (Homo sapiens, MIA PaCa-2, 2 h); < 0.5 nM in test [3].
Turning to `CNC(=O)C#Cc1ccc2c(c1)[C@@H](N)C1(CCN(c3nc(N)c(Sc4ccnc(N)c4Cl)nc3Br)CC1)C2` [Compound 240, (S)-3-(1-amino-1′-(6-amino-5-((2-amino-3-chloropyridin-4-yl)thio)-3-bromopyrazin-2-yl)-1,3-dihydrospiro[indene-2,4′-piperidin]-6-yl)-N-methylpropiolamide], the IC50 in test [1] (setting [4]) amounted to 5 nM; in test [2] (Homo sapiens, MIA PaCa-2, 2 h) it was 18 nM; in test [3], 1.5 nM.
Take `C#Cc1ccc2c(c1)[C@@H](N)C1(CCN(c3cc(=O)n(-c4ccc(F)c(OC)c4Cl)c(C)n3)CC1)C2` (atropisomer, axis not shown) [Compound 161]: the IC50 in test [1] was determined as 8 nM; in test [2] (2 hours) it was 13 nM; in test [3] it was 1 nM.
As to `C#Cc1ccc2c(c1)[C@@H](N)C1(CCN(c3cc(=O)n(-c4ccc(C#N)c(OC)c4Cl)c(C)n3)CC1)C2` (atropisomer, axis not shown) [Compound 191], the values for the half-maximal inhibitory concentration (IC50) in test [1], in test [2] (2 hours) and in test [3] were 58 nM, 21 nM and 1 nM, respectively.
For `COCCNC(=O)C#Cc1ccc2c(c1)[C@@H](N)C1(CCN(c3cnc(Sc4ccnc(N)c4F)cn3)CC1)C2` [Compound 298], the half-inhibitory concentration (IC50) in test [1] (setting [4]) amounted to 0.3 nM; in test [2] (Homo sapiens, MIA PaCa-2, 2 h) it was 1 nM; in test [3], 0.3 nM.
Take `CNC(=O)C#Cc1ccc2c(c1)[C@@H](N)C1(CCN(c3nc(N)c(Sc4ccnc(N)c4Cl)nc3C)CC1)C2` [Compound 187]: the IC50 stood at 3 nM in test [1] (setting [4]); 3 nM in test [2] (Homo sapiens, MIA PaCa-2, 2 h); 1 nM in test [3].
For `Nc1nccc(Sc2cnc(N3CCC4(CC3)Cc3ccc(C#CC(=O)O)cc3[C@H]4N)cn2)c1Cl` [Compound 279, (S)-3-(1-amino-1′-(5-((2-amino-3-chloropyridin-4-yl)thio)pyrazin-2-yl)-1,3-dihydrospiro[indene-2,4′-piperidin]-6-yl)propiolic acid], the IC50 in test [1] (setting [4]) stood at 42 nM; in test [2] (Homo sapiens, MIA PaCa-2, 2 h), 183 nM; in test [3], 0.4 nM.
Take `CN(C)C(=O)C#Cc1ccc2c(c1)[C@@H](N)C1(CCN(c3cnc(Sc4ccnc(N)c4Cl)cn3)CC1)C2` [Compound 302]: the half-maximal inhibitory concentration (IC50) in test [1] (setting [4]) was 1 nM; in test [2] (Homo sapiens, MIA PaCa-2, 2 h) it was 5 nM; in test [3], 0.4 nM.
For the compound `CCNC(=O)C#Cc1ccc2c(c1)[C@@H](N)C1(CCN(c3cnc(Sc4cc(F)nc(N)c4Cl)cn3)CC1)C2` [Compound 273], the IC50 came to 2 nM in test [1] (setting [4]); 5 nM in test [2] (Homo sapiens, MIA PaCa-2, 2 h); 1 nM in test [3].
Turning to `CCNC(=O)C#Cc1ccc2c(c1)[C@@H](N)C1(CCN(c3ncc(Sc4ccnc(N)c4Cl)nc3C)CC1)O2` [Compound 259], the IC50 in test [1] (setting [4]) was found to be 5 nM; in test [2] (Homo sapiens, MIA PaCa-2, 2 h), 23 nM; in test [3] it was 4 nM.
For the compound `CCNC(=O)C#Cc1ccc2c(c1)[C@@H](N)C1(CCN(c3cnc(Sc4ccnc(N)c4F)cn3)CC1)C2` [Compound 257], the IC50 in test [1] (setting [4]) was 0.3 nM; in test [2] (Homo sapiens, MIA PaCa-2, 2 h), 1 nM; in test [3], < 0.5 nM.
Regarding `CNC(=O)C#Cc1ccc2c(c1)[C@@H](N)C1(CCN(c3cc(=O)n(-c4ccc(F)c(OC)c4Cl)c(C)n3)CC1)C2` (atropisomer, axis not shown) [Compound 201], the figures for the IC50 in test [1] (setting [4]), in test [2] (2 hours) and in test [3] were 18 nM, 6 nM and 1 nM, respectively.
Take `CNC(=O)C#Cc1ccc2c(c1)[C@@H](N)C1(CCN(c3cc(=O)n(-c4cccc(Cl)c4Cl)c(C)n3)CC1)C2` [Compound 173]: the IC50 in test [1] (setting [4]) came out at 24 nM; in test [2] (Homo sapiens, MIA PaCa-2, 2 h), 18 nM; in test [3], 1 nM.
Consider `CCNC(=O)C#Cc1ccc2c(c1)[C@@H](N)C1(CCN(c3cnc(Sc4ccnc(N)c4Cl)cn3)CC1)C2` [Compound 155], for which the 50% inhibitory concentration (IC50) in test [1] (setting [4]) was 0.9 nM; in test [2] (Homo sapiens, MIA PaCa-2, 2 h), 2 nM; in test [3], 1 nM.
As to `NC(=O)NCC#Cc1ccc2c(c1)[C@@H](N)C1(CCN(c3cnc(Sc4ccnc(N)c4Cl)c(N)n3)CC1)C2` [Compound 159, (S)-1-(3-(1-amino-1′-(6-amino-5-((2-amino-3-chloropyridin-4-yl)thio)pyrazin-2-yl)-1,3-dihydrospiro[indene-2,4′-piperidin]-6-yl)prop-2-yn-1-yl)urea], the IC50 in test [1] (setting [4]) was determined as 6 nM; in test [2] (Homo sapiens, MIA PaCa-2, 2 h), 5 nM; in test [3], 1 nM.
On to `COCC#Cc1cc(F)c2c(c1)[C@@H](N)C1(CCN(c3cc(=O)n(-c4cccc(Cl)c4Cl)c(C)n3)CC1)C2` [Compound 166], for which the IC50 in test [1] (setting [4]) was 110 nM; in test [2] (Homo sapiens, MIA PaCa-2, 2 h), 38 nM; in test [3], 6 nM.
The matching figures for `CC#Cc1ccc2c(c1)[C@@H](N)C1(CCN(c3ncc(Sc4ccnc(N)c4Cl)c(=O)n3C)CC1)C2` [Compound 288]: 2 nM, 4 nM and 2 nM.
Consider `Cc1nc(N2CCC3(CC2)Cc2ccc(C#CC(N)=O)cc2[C@H]3N)cnc1Sc1ccnc(N)n1` [Compound 281], for which the IC50 worked out at 24 nM in test [1] (setting [4]); 167 nM in test [2] (Homo sapiens, MIA PaCa-2, 2 h); 10 nM in test [3].
For `CCNC(=O)C#Cc1ccc2c(c1)[C@@H](N)C1(CCN(c3cnc(Sc4cc(N)nc(Cl)c4Cl)c(N)n3)CC1)C2` [Compound 255] the same measures were 3 nM, 8 nM and 3 nM.
For `CNC(=O)C#Cc1ccc2c(c1)[C@@H](N)C1(CCN(c3nc(C)n(-c4cccc(Cl)c4Cl)c(=O)c3C)CC1)C2` [Compound 174], the IC50 in test [1] (setting [4]) is 53 nM; in test [2] (Homo sapiens, MIA PaCa-2, 2 h), 33 nM; in test [3] it was 6 nM.
For `Cc1nc(Sc2ccnc(N)c2Cl)c(N)nc1N1CCC2(CC1)Cc1ccc(C#CC(=O)N(C)C)cc1[C@H]2N` [Compound 203] the same measures were 16 nM, 7 nM and 2 nM.
Consider `COC(=O)C#Cc1ccc2c(c1)[C@@H](N)C1(CCN(c3cnc(Sc4ccnc(N)c4Cl)cn3)CC1)C2` [Compound 300], for which the IC50 turned out to be 16 nM in test [1] (setting [4]); 13 nM in test [2] (Homo sapiens, MIA PaCa-2, 2 h); 1 nM in test [3].
Turning to `CC#Cc1ccc2c(c1)[C@@H](N)C1(CCN(c3cc(=O)n(-c4cccc(OC)c4Cl)c(C)n3)CC1)C2` [Compound 206], the IC50 is 78 nM in test [1] (setting [4]); 69 nM in test [2] (Homo sapiens, MIA PaCa-2, 2 h); 3 nM in test [3].
The matching figures for `NC(=O)C#Cc1ccc2c(c1)[C@@H](N)C1(CCN(c3cnc(Sc4ccnc(N)c4Cl)cn3)CC1)C2` [Compound 270]: 0.6 nM, 2 nM and 0.4 nM.
As to `C#Cc1ccc2c(c1)[C@@H](N)C1(CCN(c3ncc(Sc4ccnc(N)c4Cl)c(=O)n3C)CC1)O2` [Compound 295], the concentration for half-maximal inhibition (IC50) in test [1] (setting [4]) was 4 nM; in test [2] (Homo sapiens, MIA PaCa-2, 2 h), 22 nM; in test [3], 2 nM.

Broadly, the IC50 is the point on the concentration scale where inhibition reaches its midpoint.
